We go through 21 compounds from US20070010489A1 (priority 2002, published 2007).

Several values for one entry are separate records, joined by “and”; a condition that tells them apart may be missing. Equal values may be shown once.

One experiment addresses T1, 84V90M (Human immunodeficiency virus type 1 group M subtype B, UniProt P04585, I572V/L578M).
Test: not given
The experiment is classed as biochemical, HIV. The note with it: Enzymatic assay.
Turning to `CCOP(=O)(COCCCN1C(=O)N(Cc2ccc3[nH]nc(N)c3c2)C(Cc2ccccc2)C(O)C(O)C1Cc1ccccc1)OCC` (stereo not shown) [OCH2PO3Et2], the IC50 came to 157 nM.

The compound `CCOP(=O)(COCCCCN1C(=O)N(Cc2ccc3[nH]nc(N)c3c2)C(Cc2ccccc2)C(O)C(O)C1Cc1ccccc1)OCC` (stereo not shown) [CH2OCH2PO3Et2] had an IC50 of 123 nM.

`CCCCN1C(=O)N(Cc2ccc3[nH]nc(N)c3c2)C(Cc2ccccc2)C(O)C(O)C1Cc1ccccc1` (stereo not shown) [DMP-851]: the IC50 was 9.4 nM.

Consider `CCOP(=O)(COc1ccc(CC2C(O)C(O)C(Cc3ccc(O)cc3)N(Cc3ccc(O)cc3)C(=O)N2Cc2ccc(O)cc2)cc1)OCC` (stereo not shown) [OH, Ph-pOH, OCH2PO3Et2], for which the IC50 was determined as 18 nM. Compared with the last compound, the IC50 is about 1.9-fold higher.

Compound `Nc1n[nH]c2ccc(CN3C(=O)N(CCCCOCP(=O)(O)O)C(Cc4ccccc4)C(O)C(O)C3Cc3ccccc3)cc12` (stereo not shown) [CH2OCH2PO3H2] came in with a 50% inhibitory concentration (IC50) of 205 nM.

As to `CCOP(=O)(COc1ccc(CC2C(O)C(O)C(Cc3ccccc3)N(Cc3ccccc3)C(=O)N2Cc2ccccc2)cc1)OCC` (stereo not shown), the IC50 was determined as 48 nM.

`Nc1n[nH]c2ccc(CN3C(=O)N(CCCOCP(=O)(O)O)C(Cc4ccccc4)C(O)C(O)C3Cc3ccccc3)cc12` (stereo not shown) [OCH2PO3H2] displayed an IC50 of 137 nM.

The target in the next experiment is T2, recombinant HIV-1 protease (Human immunodeficiency virus type 1 group M subtype B, UniProt P04585).
T2 construct: Enzyme: recombinant HIV-1 protease expressed in E. Coli; purchased Bachem California, Inc. H-9040; host or cells: E. coli
In words: biochemical. The note with it: Ki (pM), class symbols.
Consider `CCOC(=O)C(CC)OP(=O)(COc1ccc(CC(NC(=O)OC2COC3OCCC23)C(O)CN(CC(C)C)S(=O)(=O)c2ccc(OC)cc2)cc1)Oc1ccccc1` (stereo not shown) [Compound 5a], for which the inhibition constant (Ki) lay in the range of 10 to 100 pM.

As to `CC(C)CN(CC(O)C(Cc1ccc(OCP(=O)(NC(C)C(=O)OC(C)C)Oc2ccccc2)cc1)NC(=O)OC1CCOC1)S(=O)(=O)c1ccc(N)cc1` (stereo not shown) [drawing 1864 R1=OPh R2=Ala-iPr], the Ki is 10 to 100 pM.

For the compound `CCOC(=O)C(CC)OP(=O)(COc1ccc(CC(NC(=O)OC2COC3OCCC23)C(O)CN(CC(C)C)S(=O)(=O)c2ccc(OC)cc2)cc1)Oc1ccccc1` (stereo not shown) [Compound 5b], the Ki fell in the range of 100 to 1000 pM.

The same experiment, now with this note: read-out: HIV-1 protease inhibition Ki.
As for `CCOC(=O)C(CC(C)C)NP(=O)(COc1ccc(CC(NC(=O)OC2COC3OCCC23)C(O)CN(CC(C)C)S(=O)(=O)c2ccc(OC)cc2)cc1)NC(CC(C)C)C(=O)OCC` (stereo not shown) [Example 16g], the inhibition constant Ki amounted to 29 ± 9 pM.

Regarding `CCOC(=O)C(CC)NP(=O)(COc1ccc(CC(NC(=O)OC2COC3OCCC23)C(O)CN(CC(C)C)S(=O)(=O)c2ccc(OC)cc2)cc1)NC(CC)C(=O)OCC` (stereo not shown) [Example 16e], the Ki was 8.8 ± 1.7 pM.

Still in this experiment, the particulars now being: read-out: Ki.
As to `COc1ccc(S(=O)(=O)N(CC(C)C)C[C@@H](O)[C@H](Cc2ccc(OCP(=O)(Oc3ccccc3)Oc3ccccc3)cc2)NC(=O)OC2CCOC2)cc1` (stereo partly shown) [OMe, phenol], the Ki is less than 10 pM.

As for `CCOP(=O)(COc1ccc(CC(NC(=O)OC2CCOC2)C(O)CN(CC(C)C)S(=O)(=O)c2ccc(OC)cc2)cc1)OCC` (stereo not shown) [OMe, OEt], the Ki is < 10 pM and 10 to 100 pM.

The test system of another experiment is wild-type HIV-1 strain IIIB. In words: microbe, parasite or virus in culture. The experiment is classed as cell-based. The note with it: Human immunodeficiency virus 1, IIIB.
`CCOP(=O)(OCC)c1ccc(CNCC(NC(=O)OC2COC3OCCC23)C(O)CN(CC(C)C)S(=O)(=O)c2ccc(OC)cc2)cc1` (stereo not shown) showed an EC50 of less than 50 nM.

The compound `COc1cccc(S(=O)(=O)N(CC(C)C)CC(O)C(Cc2ccccc2)NC(=O)OC2COC3OCCC23)c1` (stereo not shown) had a half-maximal effective concentration (EC50) of less than 50 nM.

As to `CCOP(=O)(COc1ccc(S(=O)(=O)N(CC(C)C)CC(O)C(Cc2ccccc2)NC(=O)OC2COC3OCCC23)cc1)OCC` (stereo not shown), the EC50 is less than 50 nM.

The compound `COc1ccc(S(=O)(=O)N(CC(C)C)CC(O)C(Cc2ccc(CO)cc2)NC(=O)OC2COC3OCCC23)cc1` (stereo not shown) registered a concentration for a half-maximal effect (EC50) of less than 50 nM.

The compound `Cc1cccc(C)c1OCC(=O)NC(Cc1ccc(OCP(=O)(OCc2ccccc2)OCc2ccccc2)cc1)C(O)CN(CC(C)C)S(=O)(=O)c1ccc(N)cc1` (stereo not shown) returned a concentration for a half-maximal effect (EC50) of 50 to 500 nM.

Regarding `CCOP(=O)(OCC)c1ccc(CC(NC(=O)OC2COC3OCCC23)C(O)CN(CC(C)C)S(=O)(=O)c2ccc(OC)cc2)cc1` (stereo not shown) [drawing 1770 R1=OEt R2=OEt], the EC50 is less than 50 nM.

Turning to `CCOP(=O)(COc1cccc(S(=O)(=O)N(CC(C)C)CC(O)C(Cc2ccccc2)NC(=O)OC2COC3OCCC23)c1)OCC` (stereo not shown), the half-maximal effective concentration (EC50) was less than 50 nM.

Staying with this experiment, now noted: Human immunodeficiency virus 1, IIIB, class symbols.
For the compound `CCOC(=O)C(CC)OP(=O)(COc1ccc(CC(NC(=O)OC2COC3OCCC23)C(O)CN(CC(C)C)S(=O)(=O)c2ccc(OC)cc2)cc1)Oc1ccccc1` (stereo not shown) [Compound 5a], the EC50 is less than 50 nM.

Compound `CC(C)CN(CC(O)C(Cc1ccc(OCP(=O)(NC(C)C(=O)OC(C)C)Oc2ccccc2)cc1)NC(=O)OC1CCOC1)S(=O)(=O)c1ccc(N)cc1` (stereo not shown) [drawing 1864 R1=OPh R2=Ala-iPr] came in with a half-maximal effective concentration (EC50) of 50 to 500 nM.

Still in this experiment, the particulars now being: read-out: Anti-HIV-1 Cell Culture Activity EC50.
Turning to `CCOC(=O)C(CC(C)C)NP(=O)(COc1ccc(CC(NC(=O)OC2COC3OCCC23)C(O)CN(CC(C)C)S(=O)(=O)c2ccc(OC)cc2)cc1)NC(CC(C)C)C(=O)OCC` (stereo not shown) [Example 16g], the EC50 was 6.8 ± 0.4 nM.

As to `CCOC(=O)C(CC)NP(=O)(COc1ccc(CC(NC(=O)OC2COC3OCCC23)C(O)CN(CC(C)C)S(=O)(=O)c2ccc(OC)cc2)cc1)NC(CC)C(=O)OCC` (stereo not shown) [Example 16e], the EC50 came out at 12.5 ± 3.5 nM.

Still in this experiment, the particulars now being: read-out: EC50.
For `COc1ccc(S(=O)(=O)N(CC(C)C)C[C@@H](O)[C@H](Cc2ccc(OCP(=O)(Oc3ccccc3)Oc3ccccc3)cc2)NC(=O)OC2CCOC2)cc1` (stereo partly shown) [OMe, phenol], the EC50 was less than 50 nM.

Regarding `CCOP(=O)(COc1ccc(CC(NC(=O)OC2CCOC2)C(O)CN(CC(C)C)S(=O)(=O)c2ccc(OC)cc2)cc1)OCC` (stereo not shown) [OMe, OEt], the EC50 was less than 50 nM.

In the next experiment the test system is mutant HIV-1 with I84V/L90M mutations. As to the kind of experiment: microbe, parasite or virus in culture. The experiment is classed as cell-based. To be noted: fold change.
On to `COc1ccc(S(=O)(=O)N(CC(C)C)C[C@@H](O)[C@H](Cc2ccc(OCP(=O)(Oc3ccccc3)Oc3ccccc3)cc2)NC(=O)OC2CCOC2)cc1` (stereo partly shown) [OMe, phenol], for which the I84V/L90M fold change result is on record as “+ (>3 to ≦10)”.

With `COc1cccc(S(=O)(=O)N(CC(C)C)CC(O)C(Cc2ccccc2)NC(=O)OC2COC3OCCC23)c1` (stereo not shown), the I84V/L90M fold change entry is listed as “++ (>10 to ≦30)”.

Turning to `CCOP(=O)(COc1ccc(S(=O)(=O)N(CC(C)C)CC(O)C(Cc2ccccc2)NC(=O)OC2COC3OCCC23)cc1)OCC` (stereo not shown), the I84V/L90M fold change result is reported as “++ (>10 to ≦30)”.

Regarding `COc1ccc(S(=O)(=O)N(CC(C)C)CC(O)C(Cc2ccc(CO)cc2)NC(=O)OC2COC3OCCC23)cc1` (stereo not shown), the I84V/L90M fold change entry is listed as “− (≦3)”.

`Cc1cccc(C)c1OCC(=O)NC(Cc1ccc(OCP(=O)(OCc2ccccc2)OCc2ccccc2)cc1)C(O)CN(CC(C)C)S(=O)(=O)c1ccc(N)cc1` (stereo not shown): the I84V/L90M fold change result is on record as “− (≦3)”.

In the case of `CCOP(=O)(COc1cccc(S(=O)(=O)N(CC(C)C)CC(O)C(Cc2ccccc2)NC(=O)OC2COC3OCCC23)c1)OCC` (stereo not shown), the I84V/L90M fold change result is on record as “++ (>10 to ≦30)”.

Staying with this experiment, now noted: fold difference in EC50 mutant vs wild type, class symbols.
With `CCOP(=O)(OCC)c1ccc(CNCC(NC(=O)OC2COC3OCCC23)C(O)CN(CC(C)C)S(=O)(=O)c2ccc(OC)cc2)cc1` (stereo not shown), the I84V/L90M fold change entry is on record as “++ (>10 to ≦30)”.

On to `CCOP(=O)(OCC)c1ccc(CC(NC(=O)OC2COC3OCCC23)C(O)CN(CC(C)C)S(=O)(=O)c2ccc(OC)cc2)cc1` (stereo not shown) [drawing 1770 R1=OEt R2=OEt], for which the I84V/L90M fold change entry was “− (≦3)”.

In the case of `CCOC(=O)C(CC)OP(=O)(COc1ccc(CC(NC(=O)OC2COC3OCCC23)C(O)CN(CC(C)C)S(=O)(=O)c2ccc(OC)cc2)cc1)Oc1ccccc1` (stereo not shown) [Compound 5a], the I84V/L90M fold change entry is on record as “− (≦3)”.

In another experiment the target is T1, 84V90M. In words: cell-based. The arrangement: species or system HIV. The note with it: Cell-based assay (MT-4).
`CCOP(=O)(COCCCN1C(=O)N(Cc2ccc3[nH]nc(N)c3c2)C(Cc2ccccc2)C(O)C(O)C1Cc1ccccc1)OCC` (stereo not shown) [OCH2PO3Et2] gave an EC50 greater than 6000 nM.

The compound `CCOP(=O)(COCCCCN1C(=O)N(Cc2ccc3[nH]nc(N)c3c2)C(Cc2ccccc2)C(O)C(O)C1Cc1ccccc1)OCC` (stereo not shown) [CH2OCH2PO3Et2] registered a concentration for a half-maximal effect (EC50) of 3300 nM.

In the case of `CCCCN1C(=O)N(Cc2ccc3[nH]nc(N)c3c2)C(Cc2ccccc2)C(O)C(O)C1Cc1ccccc1` (stereo not shown) [DMP-851], the concentration for a half-maximal effect (EC50) is 918 nM.

`CCOP(=O)(COc1ccc(CC2C(O)C(O)C(Cc3ccc(O)cc3)N(Cc3ccc(O)cc3)C(=O)N2Cc2ccc(O)cc2)cc1)OCC` (stereo not shown) [OH, Ph-pOH, OCH2PO3Et2] had an EC50 of 1910 nM.

For `Nc1n[nH]c2ccc(CN3C(=O)N(CCCCOCP(=O)(O)O)C(Cc4ccccc4)C(O)C(O)C3Cc3ccccc3)cc12` (stereo not shown) [CH2OCH2PO3H2], the EC50 is greater than 4240 nM.

As to `CCOP(=O)(COc1ccc(CC2C(O)C(O)C(Cc3ccccc3)N(Cc3ccccc3)C(=O)N2Cc2ccccc2)cc1)OCC` (stereo not shown), the half-maximal effective concentration (EC50) came to 2460 nM.

As to `Nc1n[nH]c2ccc(CN3C(=O)N(CCCOCP(=O)(O)O)C(Cc4ccccc4)C(O)C(O)C3Cc3ccccc3)cc12` (stereo not shown) [OCH2PO3H2], the concentration for a half-maximal effect (EC50) is greater than 6000 nM.

By IC50 is commonly meant the concentration that inhibits the measured activity by half. A lower IC50 goes with inhibition by little substance. A word on the Ki: it is the dissociation constant of the complex between target and ligand, obtained from inhibition or displacement. As a reminder, the EC50 is the concentration that produces a half-maximal response.
